Experiment: Replicon assay (luciferase readout, ET cell line)
Format: cell-based
Settings: Hepatitis C virus; 10 μM compound; ET (Huh-lucubineo-ET) cells; luciferase activity measured 48-72 hours after addition; relative to no compound control; read-out: % Inhib. at 10 μM (percent inhibition of replication)
Method: A cell line, ET (Huh-lucubineo-ET) is used for screening of compounds for inhibiting HCV RNA dependent RNA polymerase. The ET cell line is stably transfected with RNA transcripts harboring a I389luc-ubi-neo/NS3-3′/ET; replicon with firefly luciferase-ubiquitin-neomycin phosphotransferase fusion protein and EMCV-IRES driven NS3-5B polyprotein containing the cell culture adaptive mutations (E1202G; T12801; K1846T) (Krieger at al, 2001 and unpublished). The ET cells are grown in DMEM (Dulbeco's Modified Eagle's Medium), supplemented with 10% fetal calf serum, 2 mM Glutamine, Penicillin (100 IU/mL)/Streptomycin (100 μg/mL), 1× nonessential amino acids, and 250 μg/mL G418 (“Geneticin”). They are all available through Life Technologies (Bethesda, Md.). The cells are plated at 0.5-1.0×10^4 cells/well in the 96 well plates and incubated for 24 hrs before adding test compound. The compounds are added to the cells to achieve a final concentration of 0.1 nM to 50 μm and a final DMSO (dimethylsulfoxide) concentration of 0.5%. Luciferase activity is measured 48-72 hours later by adding a lysis buffer and the substrate (Catalog number Glo-lysis buffer E2661 and Bright-Glo luciferase system E2620 Promega, Madison, Wis.). Cells should not be too confluent during the assay. Percent inhibition of replication data is plotted relative to no compound control. Under the same condition, cytotoxicity of the compounds are determined using cell proliferation reagent, WST-1(Roche, Germany). The compounds showing antiviral activities, but no significant cytotoxicities are chosen to determine IC50 and TC50. For these determinations, a 10 point, 2-fold serial dilution for each compound was used, which spans a concentration range of 1000 fold. IC50 and TC50 values were calculated by fitting % inhibition at each concentration to the following equation:
% inhibition=100%/[(IC50/[I])^b+1]
where b is Hill's coefficient. […]

Compound | inhibition at 10 µM [%]
O=C(Nc1nc(-c2ccc(C(=O)NC3CC3)cc2)cs1)c1ccc(CN2CCS(=O)(=O)CC2)cc1 [Compound 102, 4-{2-[4-(1,1-Dioxo-thiomorpholin-4-ylmethyl)-benzoylamino]-thiazol-4-yl}-N-cyclopropyl-benzamide] | 47.4
O=C(Nc1ccc(N2CCOCC2)cc1)c1cccc(-c2csc(NC(=O)c3ccc(CN4CCS(=O)(=O)CC4)cc3)n2)c1 [Compound 104, 3-{2-[4-(1,1-Dioxo-thiomorpholin-4-ylmethyl)-benzoylamino]-thiazol-4-yl}-N-(4-morpholin-4-yl-phenyl)-benzamide] | 95.8
O=C(Nc1ccc(N2CCOCC2)cc1)c1cccc(-c2csc(C(=O)Nc3ccc(CN4CCS(=O)(=O)CC4)cc3)n2)c1 [Compound 107, 4-[3-(4-Morpholin-4-yl-phenylcarbamoyl)-phenyl]-thiazole-2-carboxylic acid [4-(1,1-dioxo-thiomorpholin-4-ylmethyl)-phenyl]-amide] | 36.5
O=C(Nc1ccc(CN2CCS(=O)(=O)CC2)cc1)c1cccc(-c2csc(C(=O)Nc3ccc(N4CCOCC4)cc3)n2)c1 [Compound 108, 4-{3-[4-(1,1-Dioxo-thiomorpholin-4-ylmethyl)-phenylcarbamoyl]-phenyl}-thiazole-2-carboxylic acid (4-morpholin-4-yl-phenyl)-amide] | 63.1
O=C(Nc1ccc(CN2CCS(=O)(=O)CC2)cc1)c1cccc(-c2csc(NC(=O)c3ccc(N4CCOCC4)cc3)n2)c1 [Compound 109, 3-[2-(4-morpholin-4-yl-benzoylamino)-thiazol-4-yl]-N-[4-(1,1-dioxo-thiomorpholin-4-ylmethyl)-phenyl]-benzamide] | 99.8
O=C(Nc1ccc(CN2CCS(=O)(=O)CC2)cc1)c1ccc(-c2csc(C(=O)Nc3ccc(CN4CCS(=O)(=O)CC4)cc3)n2)cc1 [Compound 110, 4-{4-[4-(1,1-Dioxo-thiomorpholin-4-ylmethyl)-phenylcarbamoyl]-phenyl}-thiazole-2-carboxylic acid [4-(1,1-dioxo-thiomorpholin-4-ylmethyl)-phenyl]-amide] | 99.9
O=C(Nc1ccc(N2CCOCC2)cc1)c1ccc(-c2csc(C(=O)Nc3ccc(N4CCOCC4)cc3)n2)cc1 [Compound 111, 4-[4-(4-Morpholin-4-yl-phenylcarbamoyl)-phenyl]-thiazole-2-carboxylic acid (4-morpholin-4-yl-phenyl)-amide] | 34.2
O=C(Nc1ccc(N2CCOCC2)cc1)c1cccc(-c2csc(C(=O)Nc3ccc(N4CCOCC4)cc3)n2)c1 [Compound 112, 4-[3-(4-Morpholin-4-yl-phenylcarbamoyl)-phenyl]-thiazole-2-carboxylic acid (4-morpholin-4-yl-phenyl)-amide] | 98.5
O=C(Nc1ccc(CN2CCS(=O)(=O)CC2)cc1)c1cccc(-c2csc(C(=O)Nc3ccc(CN4CCS(=O)(=O)CC4)cc3)n2)c1 [Compound 113, 4-{3-[4-(1,1-Dioxo-thiomorpholin-4-ylmethyl)-phenylcarbamoyl]-phenyl}-thiazole-2-carboxylic acid [4-(1,1-dioxo-thiomorpholin-4-ylmethyl)-phenyl]-amide] | 89.5
CCCS(=O)(=O)N1CCN(Cc2ccc(NC(=O)c3ccc(-c4csc(C(=O)Nc5ccc(CN6CCN(S(=O)(=O)CCC)CC6)cc5)n4)cc3)cc2)CC1 [Compound 114, 4-(4-{4-[4-(Propane-1-sulfonyl)-piperazin-1-ylmethyl]-phenylcarbamoyl}-phenyl)-thiazole-2-carboxylic acid {4-[4-(propane-1-sulfonyl)-piperazin-1-ylmethyl]-phenyl}-amide] | 98
CCCS(=O)(=O)N1CCN(Cc2ccc(NC(=O)c3cccc(-c4csc(C(=O)Nc5ccc(CN6CCN(S(=O)(=O)CCC)CC6)cc5)n4)c3)cc2)CC1 [Compound 115, 4-(3-{4-[4-(Propane-1-sulfonyl)-piperazin-1-ylmethyl]-phenylcarbamoyl}-phenyl)-thiazole-2-carboxylic acid {4-[4-(propane-1-sulfonyl)-piperazin-1-ylmethyl]-phenyl}-amide] | 100
CCCS(=O)(=O)N1CCN(Cc2ccc(NC(=O)c3cccc(-c4csc(C(=O)Nc5ccc(N6CCOCC6)cc5)n4)c3)cc2)CC1 [Compound 116, 4-(3-{4-[4-(Propane-1-sulfonyl)-piperazin-1-ylmethyl]-phenylcarbamoyl}-phenyl)-thiazole-2-carboxylic acid (4-morpholin-4-yl-phenyl)-amide] | 99.5

— US20090317360A1, “ANTI-VIRAL INHIBITORS AND METHODS OF USE” (Genelabs Technologies, Inc., priority 2007, published 2009)
